Assay results reported in the supplement of paper PMC10307832.

Experiments:
Assay in all cases: relative viability (nuclei count vs DMSO), 5 days (fraction); higher = more cells survive
Serdemetan + Pemetrexed = compound: c1ccc2c(CCNc3ccc(Nc4ccncc4)cc3)c[nH]c2c1 [Serdemetan] + Nc1nc2[nH]cc(CCc3ccc(C(=O)N[C@@H](CCC(=O)O)C(=O)O)cc3)c2c(=O)[nH]1 [Pemetrexed] (partner 0.2 µM)
Outline: (§1)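 After 5 days of treatment, lung cancer cells in 1536-well plates were fixed and stained in a single step (final 0.05% Triton X-100, 1% formaldehyde, 1 ug/ml Hoechst) and their nuclei counted on 4× images. Treatment had been applied by pin tool the day after seeding as one drug alone or as a fixed anchor-drug dose with five library-drug doses (not always all listed) in √10 steps. Relative viability is the nuclei count of treated wells divided by that of vehicle wells, and values are medians of duplicate plates.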

Serdemetan + Navitoclax = compound: c1ccc2c(CCNc3ccc(Nc4ccncc4)cc3)c[nH]c2c1 [Serdemetan] + CC1(C)CCC(c2ccc(Cl)cc2)=C(CN2CCN(c3ccc(C(=O)NS(=O)(=O)c4ccc(N[C@H](CCN5CCOCC5)CSc5ccccc5)c(S(=O)(=O)C(F)(F)F)c4)cc3)CC2)C1 [Navitoclax] (partner 0.5 µM)
Outline: as §1

Selisistat + Tozasertib = compound: C1CC(C2=C(C1)C3=C(N2)C=CC(=C3)Cl)C(=O)N [Selisistat] + Cc1cc(Nc2cc(N3CCN(C)CC3)nc(Sc3ccc(NC(=O)C4CC4)cc3)n2)n[nH]1 [Tozasertib] (partner 0.1 µM)
Outline: as §1

Serdemetan + Crizotinib = compound: c1ccc2c(CCNc3ccc(Nc4ccncc4)cc3)c[nH]c2c1 [Serdemetan] + C[C@@H](Oc1cc(-c2cnn(C3CCNCC3)c2)cnc1N)c1c(Cl)ccc(F)c1Cl [Crizotinib] (partner 1 µM)
Outline: as §1

Row | Cell Line | relative viability (Serdemetan + Pemetrexed; first compound 0.04 µM) | relative viability (Serdemetan + Pemetrexed; first compound 0.1265 µM) | relative viability (Serdemetan + Pemetrexed; first compound 0.4 µM) | relative viability (Serdemetan + Pemetrexed; first compound 1.265 µM) | relative viability (Serdemetan + Pemetrexed; first compound 4 µM) | relative viability (Serdemetan + Navitoclax; first compound 0.04 µM) | relative viability (Serdemetan + Navitoclax; first compound 0.1265 µM) | relative viability (Serdemetan + Navitoclax; first compound 0.4 µM) | relative viability (Serdemetan + Navitoclax; first compound 1.265 µM) | relative viability (Serdemetan + Navitoclax; first compound 4 µM) | relative viability (Selisistat + Tozasertib; first compound 0.4 µM) | relative viability (Selisistat + Tozasertib; first compound 1.265 µM) | relative viability (Selisistat + Tozasertib; first compound 4 µM) | relative viability (Selisistat + Tozasertib; first compound 12.65 µM) | relative viability (Selisistat + Tozasertib; first compound 40 µM) | relative viability (Serdemetan + Crizotinib; first compound 0.04 µM) | relative viability (Serdemetan + Crizotinib; first compound 0.1265 µM) | relative viability (Serdemetan + Crizotinib; first compound 0.4 µM) | relative viability (Serdemetan + Crizotinib; first compound 1.265 µM) | relative viability (Serdemetan + Crizotinib; first compound 4 µM)
1 | BEN | 0.717 | 0.614 | 0.849 | 0.955 | 0.634 | 0.0749 | 0.0626 | 0.0845 | 0.0724 | 0.0676 | 0.55 | 0.406 | 0.385 | 0.505 | 0.471 | 0.826 | 0.864 | 0.944 | 0.759 | 0.64
2 | NCI-H1666 | 0.795 | 0.87 | 0.786 | – | 0.675 | 0.913 | 0.941 | 0.877 | 0.726 | 0.83 | 0.631 | 0.591 | 0.594 | 0.589 | 0.541 | 1.01 | 0.981 | 0.907 | 0.663 | 0.836
3 | LC-2-ad | 0.255 | 0.231 | 0.269 | 0.255 | 0.267 | 0.5 | 0.418 | 0.427 | – | 0.293 | 0.535 | – | 0.378 | 0.433 | 0.529 | 0.455 | 0.429 | 0.39 | 0.394 | 0.407
4 | SK-LU-1 | 0.941 | 0.895 | 1.07 | 0.908 | 0.722 | 0.809 | 0.971 | 0.853 | 0.705 | 0.639 | 0.365 | 0.329 | 0.302 | 0.32 | 0.314 | 0.813 | 0.899 | 0.82 | 0.679 | 0.712
5 | ChaGo-K-1 | 0.277 | 0.261 | 0.372 | 0.257 | 0.254 | – | 1.15 | 0.925 | 0.681 | 0.899 | 0.213 | 0.214 | 0.232 | 0.186 | 0.245 | – | 1.11 | 1.11 | 0.714 | 0.43
6 | COR-L 105 | 1.06 | 0.991 | 0.948 | 1.14 | 0.967 | 0.708 | 0.871 | 0.596 | 0.771 | 0.722 | 0.344 | 0.344 | – | 0.315 | 0.336 | 0.729 | 0.716 | 0.709 | 0.874 | 0.838
7 | NCI-H1975 | 0.279 | 0.3 | 0.312 | 0.309 | 0.295 | 1.01 | 0.998 | 1.2 | 1.05 | 1.24 | 0.715 | 0.63 | 0.69 | 0.48 | 0.396 | 0.91 | 0.934 | 0.937 | 0.804 | 0.99
8 | NCI-H1993 | 0.577 | 0.581 | 0.591 | 0.589 | 0.546 | 0.952 | 0.92 | 0.78 | – | 0.875 | 0.58 | 0.579 | 0.57 | 0.569 | 0.539 | 0.951 | 0.944 | 0.86 | – | 0.734
9 | RERF-LC-KJ | 0.455 | 0.456 | 0.452 | 0.475 | 0.49 | 1.15 | 0.842 | 1.06 | 0.805 | 0.983 | 0.662 | 0.46 | 0.519 | 0.403 | 0.371 | 0.763 | 0.818 | 0.718 | 0.705 | 0.753
